The results in this text go back to paper PMC10065799, “High-throughput profiling of sequence recognition by tyrosine kinases and SH2 domains using bacterial peptide display” (eLife, 2023).

One experiment concerns the target c-Src kinase domain (Homo sapiens, UniProt P12931). Nature of the experiment: pTyr-Var library bacterial peptide display kinase screen (enrichment scores). The format is biochemical. The conditions noted are these: sheet "Src"; effect of the variant peptide relative to its reference peptide in the pTyr-Var library screen.
The sequence DLEKTYNTFRS [B4GALNT2_Y538_A533D_YF] gave a Screen of -0.01989. The same measure, in the same setting: the value for EPFEVYRIVPE [IRF8_Y110_K108E_YF] was 2.655; that for FQKNSYSEELR [LMNA_Y211_I210S] was -2.048.

Sequence GVSFIYTIDGS [DCX_Y105_R102S_YF] returned a Screen of 0.9806. The same measure, in the same setting: then IFSGIYFKPES [L2HGDH_Y102_H98Y_YF], with 0.7627. The sequence IIEDPYFGNDF [ACP1_Y132_S137F_YF] returned a Screen of 0.7844.

For the sequence KCLAVYQAGAR [APOE_Y180_R176C], the Screen is reported as 2.645.

For LERFIYNPEEF [HLA-DPB1_Y59_R61P_YF], the Screen turned out to be 0.2405. The same measure, in the same setting: then LKLKAYRFSIS [LCT_Y974_V971L], with 1.678. Same read-out and setting: then LLTALYFISWG [KCNH2_Y780_R784W], with 0.3693. PLQHVYKIGGI [EEF1A2_Y254_D252H] showed a Screen of -2.182. On the same count and under the same terms, the value for PLRAFYLIARV [HLCS_Y635_D634Y_YF] was 1.953. In the case of PNRILYGDFWQ [MYH6_Y717_R721W], the Screen was -0.3786. The same measure, in the same setting: then PQAVTYATVKH [LILRB4_Y360_K362T], with 2.009. Still for that read-out and setting: the value for STLEVYRCHPP [IL21R_Y317_S318R] was -1.75. TSQSQYSSFRE [CCDC170_Y323_F324S] displayed a Screen of -1.483.

In the case of TTPAVYARVTK [CTRB2_Y246_A250T], the Screen was 0.6652.

The same experiment, now with this note: sheet "Src"; variant peptide versus its reference peptide in the pTyr-Var library screen.
Take ERDTVYSSSGV [NELL2_Y350_N347D]: the Screen was found to be 1.43. The sequence FFFDLYGGEKF [PTPN11_Y66_D61Y_YF] had a Screen of -1.282.

On to GRDVIYKGFED [NFU1_Y194_G190R], for which the Screen was -0.4839.

Consider HFVFFYSFLLK [PTEN_Y178_R173H_YF], for which the Screen is 0.679. The same measure, in the same setting: then KFDLMYAKLAF [TUBA1A_Y399_R402L], with 2.907.

Sequence KSDVMYTDWKK [ORM1_Y175_V174M] gave a Screen of -1.392.

For the sequence KVALLYKPFFF [POLE_Y100_P99L_YF], the Screen turned out to be 1.635. In turn, LCHELYNTIRD [PBRM1_Y54_V49L] gave a Screen of 1.3. Turning to LWQTIYNLEAE [TNNT2_Y251_S249T], the Screen is reported as 0.4505.

Turning to MSGDVYSTDFF [NTRK2_Y702_R699G_YF], the Screen is given as 0.7528. Same read-out and setting: the value for NDENIYKGLPD [VAV3_Y141_D139N] was 1.088. Consider NFFDLYGGEKF [PTPN11_Y66_D61N_YF], for which the Screen was -0.03521.

With PLDAEYFTLQI [TP53_Y327_G325A], the Screen worked out at 0.1358.

RLDGEYFTLQI [TP53_Y327_P322R] yielded a Screen of -0.8354. RRIHRYRGHLW [VHL_Y112_S111R]: the Screen is -2.928. RRIHSYRCHLW [VHL_Y112_G114C] registered a Screen of -2.304. Still for that read-out and setting: the value for RRIHSYRGHVW [VHL_Y112_L116V] was -1.808; that for SILTVYSKDNF [PANK2_Y400_A398T_YF] was -1.709; that for SPPEVYAIMRG [NTRK1_Y757_C752S] was 0.1672. Still for that read-out and setting: then SVTCTYSLALN [TP53_Y126_P128L], with 1.349.

In a further experiment the target is T1, c-Abl kinase domain (Mus musculus, UniProt P00520).
T1 sequence (P00520 242-493 limits assumed): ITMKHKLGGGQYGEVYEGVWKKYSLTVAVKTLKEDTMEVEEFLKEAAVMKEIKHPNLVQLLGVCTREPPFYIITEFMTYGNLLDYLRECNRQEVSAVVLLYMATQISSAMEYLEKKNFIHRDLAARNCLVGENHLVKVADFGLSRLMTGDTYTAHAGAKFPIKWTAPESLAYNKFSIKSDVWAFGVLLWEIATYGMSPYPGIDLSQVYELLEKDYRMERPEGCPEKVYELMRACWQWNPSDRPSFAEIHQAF
Described as above. The experiment is classed as biochemical. The conditions noted are these: fig5-data2, sheet "Abl"; Screen for the variant/reference peptide pair, pTyr-Var library.
The sequence AFQGKYTPSGQ [ALDOA_Y343_C339Y_YF] displayed a Screen of -0.08587. Same read-out and setting: then DCLASYLDKVR [KRT14_Y129_R125C], with 1.479; and DFTSRYLSASD [PKHD1_Y828_N830S], with 0.6568.

DPHECYAKVFN [ALB_Y394_D399N] came in with a Screen of -0.4574. On the same count and under the same terms, then EDAHHYLCKEV [JAK2_Y382_A377E], with -1.246; and EPAVLYNLKER [MYH7_Y103_D107E], with -0.8606; and ERIELYELDKK [PMM2_Y145_F144L], with 0.1245. Same read-out and setting: the value for GITTGYLVLKE [DNMT3B_Y588_A585T] was 1.643; that for GKVADYIPQLP [GLS_Y249_A254P] was 0.08452. The same measure, in the same setting: then GVSFIYTIDGS [DCX_Y105_R102S_YF], with -0.05601.

HHFAAYFQQGD [GPI_Y351_R347H] returned a Screen of 0.4221. Still for that read-out and setting: the value for IKKLIYVFLVI [JAGN1_Y42_H44Y_YF] was 0.0101; that for IVLRSYPASDH [NID2_Y449_G453D] was 0.09357; that for IWGKKYPTCNS [PTPRZ1_Y53_N48I] was 0.4141. Still for that read-out and setting: the value for KAIMTYVFSFF [ACTN4_Y260_S262F_YF] was -1.213. For KICDWYQRQRP [KRT14_Y151_R148C], the Screen worked out at 1.628. On the same count and under the same terms, then KNEVLYDEENH [ARFGEF1_Y314_G316E], with -0.7157; and LEIETYRRLRD [KRT12_Y429_L433R], with 0.7498; and LMQAEYWHDPI [PPT1_Y185_V181M], with 0.6191. On the same count and under the same terms, the value for NNFGNYNNQSS [HNRNPA1_Y318_D314N] was 1.57; that for QHVPDYRQNGF [PCDHGA10_Y895_V899G_YF] was 0.583; that for QQLQGYVPSNF [FRK_Y99_I100V_YF] was 0.6322. Sequence RLLRGYNQSAF [HLA-C_Y137_D138N_YF] yielded a Screen of 1.149.

Sequence SARVRYLMAEK [LDHB_Y173_F171V] showed a Screen of 1.358.

TGNPAYRSFSN [IL4R_Y497_A492T] yielded a Screen of 1.02. The same measure, in the same setting: then TLPAFYMENFS [GLB1_Y552_G554E], with 0.2401; and TSQSQYSSFRE [CCDC170_Y323_F324S], with 2.786; and VIKDKYPKAHF [APTX_Y209_R213H_YF], with 0.3442. Still for that read-out and setting: then WDLTDYLMKIL [ACTB_Y188_R183W], with 1.288.

Staying with this experiment, now noted: sheet "Abl"; effect of variant peptide relative to its reference peptide in pTyr-Var library screen (enrichment).
CDFKKYGKGLR [ZNF445_Y433_Y428C_YF] returned a Screen of 1.206. Still for that read-out and setting: then EEETDYTPVWC [UROD_Y30_G25E], with 0.6447; and FSALDYKIFFF [WDPCP_Y210_L205F_YF], with -1.647; and LMFPDYLPCSV [SAG_Y129_T125M], with 0.9994. Still for that read-out and setting: the value for LSEEKYELKEG [TREM1_Y29_T25S] was -1.268; that for RGKDNYETSQL [SPP1_Y225_S224N] was 0.8642. RLDGEYFTLQI [TP53_Y327_P322R]: the Screen is given as 0.2276. On the same count and under the same terms, the value for TDTAAYEERLR [SPTB_Y474_V478L] was -0.2404; that for VKPENYRRLDV [VHL_Y175_I180V] was -5.31.

The subject of a further experiment is EPHB1 kinase domain. Described as above. The experiment is classed as biochemical, human. The following applies: sheet "EPHB1"; variant seq vs reference seq; bacterial peptide display enrichment.
Consider RRIHRYRGHLW [VHL_Y112_S111R], for which the “Screen (variant relative to reference peptide, measured in the pTyr-Var library screen)” value is listed as -1.747. On the same count and under the same terms, then RRIHSYRCHLW [VHL_Y112_G114C], with -1.413. As for RRIHSYRGHVW [VHL_Y112_L116V], the “Screen (variant relative to reference peptide, measured in the pTyr-Var library screen)” value was -1.04.

Still in this experiment, the particulars now being: sheet EPHB1; effect of the variant peptide relative to its reference peptide in the pTyr-Var library screen (enrichment scores).
DGQVNYEELVQ [CALM1_Y139_F142L] had a Screen of -0.5322. DGQVNYEGFVQ [CALM1_Y139_E141G] yielded a Screen of -0.1972. Still for that read-out and setting: then HGQVNYEEFVQ [CALM2_Y139_D134H], with 1.863. The same measure, in the same setting: then IFSGIYFKPES [L2HGDH_Y102_H98Y_YF], with 0.7253; and PLQHVYKIGGI [EEF1A2_Y254_D252H], with -0.7167; and RHPEVYHHLGI [NVL_Y290_V295I], with 0.1225. On the same count and under the same terms, then RRNEEYCLLAS [ITK_Y198_D202A], with -0.2034; and VRFVDYVLFRS [FAM189B_Y361_S358F], with 1.362.
